# In the supplement of paper PMC10307832:
# How the values were obtained:
# Assay in all cases: relative viability (nuclei count vs DMSO), 5 days (fraction); higher = more cells survive
# Dabrafenib + OSI-027 = compound: CC(C)(C)c1nc(-c2cccc(NS(=O)(=O)c3c(F)cccc3F)c2F)c(-c2ccnc(N)n2)s1 [Dabrafenib] + COc1cccc2cc(-c3nc([C@H]4CC[C@H](C(=O)O)CC4)n4ncnc(N)c34)[nH]c12 [OSI-027] (partner 0.5 µM)
# Summary of the method: (§1)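 Five library-drug doses in √10 steps were combined with a fixed anchor-drug dose, or a single drug was given alone, by pin tool to lung cancer cell lines in 1536-well plates the day after seeding. Nuclei were stained and counted after 5 days. Relative viability is the nuclei count in treated wells over that in vehicle wells, taken as the median of duplicate plates.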
# VX-702 + Lapatinib = compound: NC(=O)c1ccc(N(C(N)=O)c2c(F)cccc2F)nc1-c1ccc(F)cc1F [VX-702] + CS(=O)(=O)CCNCc1ccc(-c2ccc3ncnc(Nc4ccc(OCc5cccc(F)c5)c(Cl)c4)c3c2)o1 [Lapatinib] (partner 2 µM)
# Summary of the method: as §1
# VX-702 + Dasatinib = compound: NC(=O)c1ccc(N(C(N)=O)c2c(F)cccc2F)nc1-c1ccc(F)cc1F [VX-702] + Cc1nc(Nc2ncc(C(=O)Nc3c(C)cccc3Cl)s2)cc(N2CCN(CCO)CC2)n1 [Dasatinib] (partner 0.075 µM)
# Summary of the method: as §1
# Dabrafenib + Pictilisib = compound: CC(C)(C)c1nc(-c2cccc(NS(=O)(=O)c3c(F)cccc3F)c2F)c(-c2ccnc(N)n2)s1 [Dabrafenib] + CS(=O)(=O)N1CCN(Cc2cc3nc(-c4cccc5[nH]ncc45)nc(N4CCOCC4)c3s2)CC1 [Pictilisib] (partner 1 µM)
# Summary of the method: as §1
Cell Line,relative viability (Dabrafenib + OSI-027; first compound 0.003 µM),relative viability (Dabrafenib + OSI-027; first compound 0.009487 µM),relative viability (Dabrafenib + OSI-027; first compound 0.03 µM),relative viability (Dabrafenib + OSI-027; first compound 0.09487 µM),relative viability (Dabrafenib + OSI-027; first compound 0.3 µM),relative viability (VX-702 + Lapatinib; first compound 0.02 µM),relative viability (VX-702 + Lapatinib; first compound 0.2 µM),relative viability (VX-702 + Lapatinib; first compound 0.6325 µM),relative viability (VX-702 + Lapatinib; first compound 2 µM),relative viability (VX-702 + Dasatinib; first compound 0.02 µM),relative viability (VX-702 + Dasatinib; first compound 0.2 µM),relative viability (VX-702 + Dasatinib; first compound 0.6325 µM),relative viability (VX-702 + Dasatinib; first compound 2 µM),relative viability (Dabrafenib + Pictilisib; first compound 0.003 µM),relative viability (Dabrafenib + Pictilisib; first compound 0.009487 µM),relative viability (Dabrafenib + Pictilisib; first compound 0.03 µM),relative viability (Dabrafenib + Pictilisib; first compound 0.09487 µM),relative viability (Dabrafenib + Pictilisib; first compound 0.3 µM)
201T,0.306,0.786,0.642,0.656,0.808,1.06,0.991,1.12,1.09,0.578,0.542,0.587,0.576,0.665,0.711,0.607,0.65,0.71
A549,–,–,–,–,–,1.05,0.922,0.943,1.03,–,–,–,–,0.497,0.487,0.519,0.544,0.64
A-427,–,0.351,0.518,0.379,0.474,1.17,0.968,1.07,1.16,0.689,0.698,0.796,0.584,–,0.611,0.769,0.522,0.675
ABC-1,0.442,0.42,0.496,0.537,0.507,0.972,0.98,–,1.18,0.666,0.535,0.573,0.562,–,0.86,0.823,0.778,0.822
BEN,–,0.332,–,0.305,0.269,0.726,0.662,0.539,0.926,0.337,0.255,0.317,0.304,–,0.58,–,0.52,0.687
CAL-12T,0.523,0.68,0.902,0.566,0.645,0.61,0.603,0.611,0.664,0.409,0.539,0.273,0.463,0.319,0.392,0.395,0.57,0.535
COR-L23,0.768,0.803,0.732,0.6,0.61,0.999,0.862,0.914,1.26,0.523,0.475,0.559,0.673,0.8,0.888,0.704,0.632,0.647
COR-L 105,0.6,0.786,0.58,0.722,0.906,0.332,0.336,0.338,0.326,0.315,0.402,0.313,0.3,0.297,0.435,0.353,0.454,0.474
Calu-6,–,–,–,–,–,1.07,1.1,1.13,1.25,–,–,–,–,0.968,0.913,0.867,0.715,0.694
ChaGo-K-1,0.209,0.53,0.502,0.504,0.651,–,–,–,–,0.769,0.584,0.622,0.614,–,0.591,0.749,0.721,0.933
EBC-1,–,–,–,–,–,0.228,0.175,0.188,0.188,–,–,–,–,0.397,0.37,0.272,0.184,0.227
EKVX,0.649,0.79,0.693,0.652,0.729,0.215,0.22,0.226,0.127,0.62,0.491,0.527,0.436,0.413,0.458,0.38,0.495,0.59
EMC-BAC-2,0.359,0.376,0.301,0.295,0.329,0.924,0.947,0.906,0.883,0.182,0.331,0.332,0.275,0.52,0.434,0.389,0.585,0.623
EPLC-272H,0.234,0.371,0.31,0.258,0.249,1.09,0.751,1.1,1.59,0.359,0.332,0.362,0.377,–,0.212,0.288,0.414,0.369
H3255,0.572,0.579,0.62,0.56,0.583,0.24,0.254,0.26,0.241,0.312,0.301,0.44,0.409,0.394,0.566,0.43,0.405,0.462
HARA,0.262,0.618,–,0.327,0.864,0.653,0.69,0.91,0.825,0.224,0.268,0.36,0.329,0.327,0.629,0.325,0.399,0.605
HCC-15,0.547,0.695,0.67,0.53,0.622,0.837,0.838,0.857,0.928,0.667,0.501,0.602,0.639,0.595,0.851,0.654,0.797,0.725
HCC-44,0.45,0.614,0.511,0.478,0.591,1.03,1.03,0.982,1.05,–,–,–,–,0.555,0.67,0.499,0.704,0.699
HCC-78,–,0.36,0.334,0.354,0.38,0.871,0.456,0.603,0.98,0.449,0.338,0.351,0.356,–,0.235,0.192,0.276,0.219
HCC-366,0.109,0.988,0.501,0.773,1.08,1.03,1.15,1.23,0.791,0.786,0.601,0.598,0.22,0.161,0.183,0.0973,0.169,0.118
